Measurements: patent US10905781B2, “Reporter platform for real time monitoring of drug efficacy” (THE BRIGHAM AND WOMEN'S HOSPITAL, INC., priority 2016, dated 2021)
Ends that are not written are not given here.

System: effector caspases (caspase-3 and caspase-7) compared with initiator caspases (caspase-6 and caspase-9)
Experiment: Activation of the NIR FRET reporter element by caspases
Format: biochemical
Conditions: caspase-3 and caspase-7 compared with caspase-6 and caspase-9
Experimental: FIG. 15A is a graph showing the time-dependent activation of the reporter element (with the NIR FRET pair) in the presence of caspase-3. Reporter element (50 μM) was incubated in the presence of 50 U caspase-3 enzyme at 37° C., which results in the cleavage of the DEVD sequence and removing the quenching effect of Dylight 766Q on the fluorophore Dylight 755. The increase in fluorescence over time was monitored.

reporter element: caspase-3 cleavable sequence GKDEVDAPC-CONH2 to which a NIR FRET-pair (Dylight 755 / Dylight 766Q) is conjugated (GKDEVDAPC-NH2; also: Dylight 755 / Dylight 766Q FRET pair conjugated)
activation of the NIR-based fluorophore by effector versus initiator caspases: selective activation
